Results taken from PubChem BioAssay AID1745844 (Carcinogenic Potency Database (CPDB), 2022).
Where “and” joins values, the source holds several entries; their conditions need not be identical. Equal values may be shown once.

Test system: rodent lifetime carcinogenesis bioassay, tumor incidence TD50
Test: carcinogenic potency in animals, long-term in vivo studies, CPDB compilation (AID 1745844)
Details: rat, strain Sprague-Dawley

C=CCl
TD50 (females, inhaled, site: extrahepatic tissue, lesion: angioma, dosed 52 weeks, study length 111 weeks): 115 mg/kg/day | TD50 (females, inhaled, site: extrahepatic tissue, lesion: angioma, dosed 52 weeks, study length 139 weeks): 399 mg/kg/day | TD50 (females, inhaled, site: extrahepatic tissue, lesion: angiosarcoma, dosed 25 weeks, study length 135 weeks): 2420 mg/kg/day | TD50 (females, inhaled, site: extrahepatic tissue, lesion: angiosarcoma, dosed 52 weeks, study length 111 weeks): 52.9 mg/kg/day | TD50 (females, inhaled, site: extrahepatic tissue, lesion: angiosarcoma, dosed 52 weeks, study length 131 weeks): 21400 mg/kg/day | TD50 (females, inhaled, site: kidney, lesion: nephroblastoma, dosed 25 weeks, study length 135 weeks): 3140 mg/kg/day | TD50 (females, inhaled, site: kidney, lesion: nephroblastoma, dosed 52 weeks, study length 111 weeks): 17.5 mg/kg/day | TD50 (females, inhaled, site: kidney, lesion: nephroblastoma, dosed 52 weeks, study length 139 weeks): 230 mg/kg/day | TD50 (females, inhaled, site: liver, lesion: angioma, dosed 25 weeks, study length 127 weeks): 913 mg/kg/day | TD50 (females, inhaled, site: liver, lesion: angioma, dosed 25 weeks, study length 135 weeks): 507 mg/kg/day | TD50 (females, inhaled, site: liver, lesion: angioma, dosed 52 weeks, study length 111 weeks): 30.7 mg/kg/day | TD50 (females, inhaled, site: liver, lesion: angioma, dosed 52 weeks, study length 139 weeks): 378 mg/kg/day | TD50 (females, inhaled, site: liver, lesion: angioma, dosed 71 weeks, study length 71 weeks): 9130 mg/kg/day | TD50 (females, inhaled, site: liver, lesion: angiosarcoma, dosed 25 weeks, study length 127 weeks): 4460 mg/kg/day | TD50 (females, inhaled, site: liver, lesion: angiosarcoma, dosed 25 weeks, study length 135 weeks): 2460 mg/kg/day | TD50 (females, inhaled, site: liver, lesion: angiosarcoma, dosed 52 weeks, study length 111 weeks): 20.2 mg/kg/day | TD50 (females, inhaled, site: liver, lesion: angiosarcoma, dosed 52 weeks, study length 131 weeks): 735 mg/kg/day and 21 mg/kg/day | TD50 (females, inhaled, site: liver, lesion: angiosarcoma, dosed 52 weeks, study length 139 weeks): 113 mg/kg/day | TD50 (females, inhaled, site: liver, lesion: angiosarcoma, dosed 71 weeks, study length 71 weeks): 240 mg/kg/day | TD50 (females, inhaled, site: liver, lesion: hepatocellular carcinoma, dosed 71 weeks, study length 71 weeks): 1720 mg/kg/day | TD50 (females, inhaled, site: liver, lesion: hepatoma, dosed 25 weeks, study length 135 weeks): 357 mg/kg/day | TD50 (females, inhaled, site: liver, lesion: hepatoma, dosed 52 weeks, study length 131 weeks): 244 mg/kg/day | TD50 (females, inhaled, site: liver, lesion: hepatoma, dosed 52 weeks, study length 139 weeks): 140 mg/kg/day | TD50 (females, inhaled, site: mammary gland, lesion: adenocarcinoma, dosed 25 weeks, study length 135 weeks): 291 mg/kg/day | TD50 (females, inhaled, site: mammary gland, lesion: adenocarcinoma, dosed 52 weeks, study length 111 weeks): 5.91 mg/kg/day | TD50 (females, inhaled, site: mammary gland, lesion: adenocarcinoma, dosed 52 weeks, study length 131 weeks): 1.66 mg/kg/day | TD50 (females, inhaled, site: mammary gland, lesion: adenocarcinoma, dosed 52 weeks, study length 139 weeks): 141 mg/kg/day | TD50 (males, by gavage, site: Zymbal's gland, lesion: carcinoma, dosed 52 weeks, study length 127 weeks): 315 mg/kg/day | TD50 (males, by gavage, site: Zymbal's gland, lesion: carcinoma, dosed 59 weeks, study length 129 weeks): 4.75 mg/kg/day | TD50 (males, by gavage, site: any site (literature study), lesion: several types, types named in the paper, dosed 52 weeks, study length 127 weeks): 37.9 mg/kg/day | TD50 (males, by gavage, site: any site (literature study), lesion: several types, types named in the paper, dosed 59 weeks, study length 129 weeks): 16.1 mg/kg/day | TD50 (males, by gavage, site: extrahepatic tissue, lesion: angioma, dosed 52 weeks, study length 127 weeks): 409 mg/kg/day | TD50 (males, by gavage, site: kidney, lesion: nephroblastoma, dosed 52 weeks, study length 127 weeks): 102 mg/kg/day | TD50 (males, by gavage, site: liver, lesion: angioma, dosed 52 weeks, study length 127 weeks): 430 mg/kg/day | TD50 (males, by gavage, site: liver, lesion: angiosarcoma, dosed 52 weeks, study length 127 weeks): 57.4 mg/kg/day | TD50 (males, by gavage, site: liver, lesion: angiosarcoma, dosed 59 weeks, study length 129 weeks): 8.45 mg/kg/day | TD50 (males, by gavage, site: liver, lesion: hepatoma, dosed 59 weeks, study length 129 weeks): 3.36 mg/kg/day | TD50 (males, inhaled, site: Zymbal's gland, lesion: carcinoma, dosed 25 weeks, study length 115 weeks): 284 mg/kg/day | TD50 (males, inhaled, site: Zymbal's gland, lesion: carcinoma, dosed 25 weeks, study length 139 weeks): 226 mg/kg/day | TD50 (males, inhaled, site: Zymbal's gland, lesion: carcinoma, dosed 52 weeks, study length 131 weeks): 2320 mg/kg/day | TD50 (males, inhaled, site: Zymbal's gland, lesion: carcinoma, dosed 52 weeks, study length 139 weeks): 50.4 mg/kg/day | TD50 (males, inhaled, site: adrenal gland, lesion: one or several types, types not named, dosed 52 weeks, study length 130 weeks): 251 mg/kg/day | TD50 (males, inhaled, site: any site (literature study), lesion: several types, types named in the paper, dosed 25 weeks, study length 115 weeks): 134 mg/kg/day | TD50 (males, inhaled, site: any site (literature study), lesion: several types, types named in the paper, dosed 25 weeks, study length 139 weeks): 284 mg/kg/day | TD50 (males, inhaled, site: any site (literature study), lesion: several types, types named in the paper, dosed 52 weeks, study length 130 weeks): 17.3 mg/kg/day | TD50 (males, inhaled, site: any site (literature study), lesion: several types, types named in the paper, dosed 52 weeks, study length 131 weeks): 950 mg/kg/day | TD50 (males, inhaled, site: any site (literature study), lesion: several types, types named in the paper, dosed 52 weeks, study length 139 weeks): 8.67 mg/kg/day | TD50 (males, inhaled, site: brain, lesion: neuroblastoma, dosed 52 weeks, study length 131 weeks): 4580 mg/kg/day | TD50 (males, inhaled, site: extrahepatic tissue, lesion: angioma, dosed 25 weeks, study length 115 weeks): 5810 mg/kg/day | TD50 (males, inhaled, site: extrahepatic tissue, lesion: angioma, dosed 52 weeks, study length 123 weeks): 31.4 mg/kg/day | TD50 (males, inhaled, site: extrahepatic tissue, lesion: angioma, dosed 52 weeks, study length 131 weeks): 8180 mg/kg/day | TD50 (males, inhaled, site: extrahepatic tissue, lesion: angioma, dosed 52 weeks, study length 139 weeks): 18 mg/kg/day
